# According to US12377110B2, “Fospropofol methods and compositions” (Epalex Corporation, priority 2019, dated 2025):
# Tested on: adult women and men experiencing moderate to severe migraine headache
# Test: Study A17: safety-tolerability (TEAEs)
# Conditions: N = 18, 800 mg oral
# Description: The study is planned to complete approximately 85 subjects. • Enrolled subjects will be asked to come to the study site for treatment when they experience a qualifying migraine headache. Dosing must occur within 4 hours after onset of the migraine symptoms. If treatment at the study site is not feasible or practicable within 4 hours after onset of migraine symptoms, subjects should use their usual medication for that headache and attempt to visit the clinic for treatment as soon as possible (within 4 hours) after onset of their next migraine headache. Dosing must occur within 60 days after enrollment (see Post-enrollment Period below). • At clinic check-in for treatment, study personnel will verify eligibility for closing regarding the criteria for a qualifying headache and adherence to post-enrollment study restrictions (see Eligibility for Dosing below). • Treatment will consist of a single oral dose of fospropofol disodium. […] Because the prevalence of migraine headaches is higher in women than in men, efforts will be made to enroll at least 50% women. • Subjects must meet the general inclusion and exclusion criteria listed below (Inclusion Criteria and Exclusion Criteria) at screening to be enrolled in the study. To be eligible for fospropofol disodium treatment after onset of a migraine headache, enrolled subjects must meet criteria specific to the presenting headache at clinic check-in (see Qualifying Headache below) and adhere to study restrictions specific to the period between enrollment and clinic check-in (see Post-enrollment Restrictions below). • Inclusion Criteria Subjects must meet all of the following criteria at screening to be enrolled in the study: • 1. Written informed consent approved by the Institutional Review Board (IRB) given before any study-related procedures are performed • 2. […] Complete abstinence alone can be used as a method of contraception. • 6. […] Able to comprehend the nature of the study, capable of giving written informed consent, and able to communicate effectively with clinic staff (as assessed by the investigator) • 8. Available to volunteer for the entire study duration and willing to adhere to all protocol requirements, including the post-enrollment restrictions (see Post-enrollment Restrictions below) • 9. Agrees not to post any information related to the study on any website or social media site (e.g., Facebook, Twitter, LinkedIn, Google+, etc.) until the entire trial has been completed • 10. Willing to forgo rescue medicine for at least 2 hours after initiation of treatment with study drug (see In-Clinic Rescue Medicine) • Exclusion Criteria Subjects to whom any of the following criteria apply at screening will be excluded: • 1. History of hemiplegic migraine (at any time in the past). • 2. History of headaches of any type occurring on ≥15 days/month during any of the 3 months prior to screening. • 3.
structure (smiles),measurement,setting,value
CC(C)c1cccc(C(C)C)c1OCOP(=O)([O-])O.[Na+] [fospropofol disodium],"Number of TEAEs, E, by severity",Mild,5
same,"Number of subjects with at least 1 TEAE, by severity",Mild,3
same,"Number of TEAEs, E, by severity",Moderate,3
same,"Number of subjects with at least 1 TEAE, by severity",Moderate,3^1
same,"Dry mouth: number of TEAEs, E",,1
same,"Dry mouth: subjects with TEAE, %",,7.7%
same,"Dysgeusia: number of TEAEs, E",,1
same,"Dysgeusia: subjects with TEAE, %",,5.6%
same,"Gastrointestinal disorders: number of TEAEs, E",,2
same,"Gastrointestinal disorders: subjects with TEAE, %",,11.1%
same,"Genital paraesthesia: number of TEAEs, E",,2
same,"Genital paraesthesia: subjects with TEAE, %",,5.6%
same,"Nausea: number of TEAEs, E",,1
same,"Nausea: subjects with TEAE, %",,7.7%
same,"Nervous system disorders: number of TEAEs, E",,4
same,"Nervous system disorders: subjects with TEAE, %",,16.7%
same,"Number of TEAEs, E",,9
same,"Paraesthesia: number of TEAEs, E",,2
same,"Paraesthesia: subjects with TEAE, %",,11.1%
same,"Pruritus: number of TEAEs, E",,1
same,"Pruritus: subjects with TEAE, %",,5.6%
same,"Reproductive system and breast disorders: number of TEAEs, E",,2
same,"Reproductive system and breast disorders: subjects with TEAE, %",,5.6%
same,"Skin and subcutaneous tissue disorders: number of TEAEs, E",,1
same,"Skin and subcutaneous tissue disorders: subjects with TEAE, %",,5.6%
same,"Somnolence: number of TEAEs, E",,1
same,"Somnolence: subjects with TEAE, %",,5.6%
same,"Subjects with at least 1 TEAE, %",,33.3%
same,Relation of TEAEs to study drug: Dry mouth,Possibly related,0
same,Relation of TEAEs to study drug: Dysgeusia,Possibly related,0
same,Relation of TEAEs to study drug: Gastrointestinal disorders,Possibly related,1
same,Relation of TEAEs to study drug: Genital paraesthesia,Possibly related,0
same,Relation of TEAEs to study drug: Nausea,Possibly related,1
same,Relation of TEAEs to study drug: Nervous system disorders,Possibly related,0
same,"Relation of TEAEs to study drug: Number of TEAEs, E",Possibly related,2
same,Relation of TEAEs to study drug: Paraesthesia,Possibly related,0
same,Relation of TEAEs to study drug: Pruritus,Possibly related,1
same,Relation of TEAEs to study drug: Reproductive system and breast disorders,Possibly related,0
same,Relation of TEAEs to study drug: Skin and subcutaneous tissue disorders,Possibly related,1
same,Relation of TEAEs to study drug: Somnolence,Possibly related,0
same,Relation of TEAEs to study drug: Dry mouth,Probably related,1
same,Relation of TEAEs to study drug: Dysgeusia,Probably related,1
same,Relation of TEAEs to study drug: Gastrointestinal disorders,Probably related,1
same,Relation of TEAEs to study drug: Genital paraesthesia,Probably related,2
same,Relation of TEAEs to study drug: Nervous system disorders,Probably related,4
same,"Relation of TEAEs to study drug: Number of TEAEs, E",Probably related,7
same,Relation of TEAEs to study drug: Paraesthesia,Probably related,2
same,Relation of TEAEs to study drug: Pruritus,Probably related,0
same,Relation of TEAEs to study drug: Reproductive system and breast disorders,Probably related,2
same,Relation of TEAEs to study drug: Skin and subcutaneous tissue disorders,Probably related,0
same,Relation of TEAEs to study drug: Somnolence,Probably related,1
same,"Number of TEAEs, E, by severity",Severe,1
same,"Number of subjects with at least 1 TEAE, by severity",Severe,1^1
